Test results published in patent US9422262B2, “Compounds and methods for treating diseases mediated by protease activated receptors” (The Broad Institute, Inc., priority 2010, dated 2016).

Assays:
PAR1 [1] = target: T1, PAR1 (Homo sapiens, UniProt P25116); assay: P-selectin surface expression on washed platelets stimulated with SFLLRN (flow cytometry); type: cell-based; parameters: endogenous in cells; host or cells: platelets (platelet-rich plasma; washed platelets from individual donors)
T1 sequence (P25116 22-425): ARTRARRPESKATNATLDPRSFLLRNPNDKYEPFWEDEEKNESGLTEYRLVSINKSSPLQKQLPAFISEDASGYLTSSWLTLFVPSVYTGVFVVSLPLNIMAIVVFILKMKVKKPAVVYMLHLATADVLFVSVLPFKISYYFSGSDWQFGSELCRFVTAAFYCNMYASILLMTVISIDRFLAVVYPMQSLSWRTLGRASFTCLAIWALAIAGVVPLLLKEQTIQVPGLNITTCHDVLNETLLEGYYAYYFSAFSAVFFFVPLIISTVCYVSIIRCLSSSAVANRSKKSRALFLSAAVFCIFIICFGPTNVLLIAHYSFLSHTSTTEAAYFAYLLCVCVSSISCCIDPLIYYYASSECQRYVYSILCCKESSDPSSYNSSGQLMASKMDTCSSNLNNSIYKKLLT
Method: (§1) For this assay, the probe is incubated with washed platelets obtained from individual donors. Platelets are subsequently stimulated with 5 μM SFLLRN. After 15 minutes, phycoerythrin-labeled anti-P-selectin antibody (BD Biosciences) is added to the incubation mixture. Following a 20-minute incubation, a sample is analyzed by flow cytometry for staining of P-selectin.
P-selectin surface expression was monitored to detect platelet activation.

platelets = assay: PMA- or Ca2+ ionophore-induced platelet activation (P-selectin, flow cytometry); type: cell-based, human; conditions: washed platelets, 6 point dose curve
Method: as §1, with “these assays,” for “this assay,”, “donors in a 6 point dose curve.” for “donors.”, “either PMA or Ca2+ ionophore.” for “5 μM SFLLRN.”

permeabilized platelets = assay: GTP-γ-S induced P-selectin surface expression in permeabilized platelets; type: cell-based, human; conditions: FIG. 1C
Method: To confirm the specificity of compound 1 for PAR1, platelets were incubated with compound 1 and subsequently activated with a variety of platelet agonists. P-selectin surface expression was monitored to detect platelet activation. […] In contrast, an IC50 for inhibition of other agonists was not reached even at concentrations >30-fold its IC50 for PAR1-mediated secretion. To further evaluate whether PAR1 is the target of compound 1, we tested the ability of the compound to inhibit Ca^2+ flux in HEK293 cells overexpressing recombinant PAR1.

mouse PAR4 = target: T2, mouse PAR4 (Mus musculus, UniProt O88634); assay: PAR4-mediated aggregation of mouse platelets; type: cell-based; conditions: FIG. 4A
T2 construct: Aggregation studies using mouse platelets; endogenous in cells; host or cells: mouse platelets
T2 sequence (O88634 17-396): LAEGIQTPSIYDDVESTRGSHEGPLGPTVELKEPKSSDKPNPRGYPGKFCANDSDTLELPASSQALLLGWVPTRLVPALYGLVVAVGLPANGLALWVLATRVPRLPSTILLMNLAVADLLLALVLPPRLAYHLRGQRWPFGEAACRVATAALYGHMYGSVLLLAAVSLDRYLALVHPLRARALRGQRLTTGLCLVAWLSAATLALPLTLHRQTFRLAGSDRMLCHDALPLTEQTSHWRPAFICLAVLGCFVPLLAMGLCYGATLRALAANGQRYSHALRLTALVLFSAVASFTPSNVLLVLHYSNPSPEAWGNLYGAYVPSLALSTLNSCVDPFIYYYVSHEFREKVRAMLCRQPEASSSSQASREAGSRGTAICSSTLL

PAR1 [2] = target: T1, PAR1; assay: Ca2+ flux in HEK293 cells overexpressing recombinant PAR1; type: cell-based; parameters: expressed in transfected cells; host or cells: HEK293; conditions: concentrations similar to those for inhibition of P-selectin expression; FIG. 1B

SMILES: CCCC(=O)Nc1cccc(NC(=O)c2ccccc2Br)c1 [Compound 1]
- inhibition of the expression of P-selectin (PAR1 [1]; 1 μM compound, washed platelets, activation with 5 μM SFLLRN): 90%
- IC50 (PAR1 [1]; FIG. 1A, read-out: IC50, activation mediated through PAR1 (P-selectin surface expression)): ~300 nM
- pattern of inhibition of PAR1-mediated platelet activation (PAR1 [1]; varying concentrations of compound and SFLLRN, FIG. 2): non-competitive inhibition
- effect on Ca2+ ionophore-induced activation of platelets (platelets): did not show any effect
- effect on PMA-induced activation of platelets (platelets): did not show any effect
- P-selectin surface expression induced by GTP-γ-S (permeabilized platelets): fails to inhibit
- PAR4-mediated aggregation of mouse platelets (mouse PAR4): inhibits
- changes in Ca2+ flux in HEK293 cells overexpressing recombinant PAR1 (PAR1 [2]): inhibits
